The structures appear in SMILES notation. Like-named read-outs stand apart in the source and are kept apart here.

Consider one compound from PMC9065877, “Safety, tolerability and pharmacokinetics of the oligomer modulator anle138b with exposure levels sufficient for therapeutic efficacy in a murine Parkinson model: A randomised, double-blind, placebo-controlled phase 1a trial” (EBioMedicine, 2022).

Series [1] is described as follows: Multiple ascending dose (MAD, QD 7 days) oral pharmacokinetics of anle138b in healthy subjects, plasma. In kind it is in vivo, human. On the procedure:
This was a single-centre, double-blind, randomised, placebo-controlled single ascending dose (SAD) and multiple ascending dose (MAD) study of anle138b in doses of up to 300 mg per day in healthy subjects. In addition, the effect of food (FES) on the PK of anle138b in healthy subjects was examined using single doses of 150 mg. Participants were recruited from Quotient Sciences (Nottingham, UK) volunteer database.
(§1) As a safety precaution, sentinel dosing was performed for all SAD and MAD cohorts. In SAD, subjects received a single dose of anle138b or placebo after fasting from all food and drink (except water) for a minimum of 8 h prior to dosing. The dosing in the four SAD-cohorts were 50 mg, 100 mg, 200 mg and 300 mg of free anle138b equivalent, respectively. In the MAD part, participants received anle138b or placebo once daily (QD) for 7 days after fasting from all food and drink (except water) for a minimum of 8 h prior to dosing. The dosing in the three MAD-cohorts was 100 mg, 200 mg and 300 mg of free anle138b equivalent, respectively. Post dosing mouth and hand checks were conducted to ensure the capsules were swallowed. In-study decisions regarding continuation and dose escalation were made by the safety advisory committee (SAC) comprising the principal investigator, the sponsor's medical monitor and a PK expert. For dose escalation to proceed, data needed to be available from a minimum of 6 subjects per cohort with completed per protocol safety and PK assessments up to 48 h after dosing to ensure at least 4 subjects had received active IMP. The decision to proceed to the next higher dose level was based on safety, tolerability and available PK data to 48 h post-dose. The following data were required: Adverse events, vital signs, safety laboratory, ECG, physical examinations, plasma concentrations of anle138b with interim PK parameter estimations (Tmax, Cmax, AUC(0-24), AUC(0-tau), AUC(0-last) and T½, where applicable). Data were provided to the SAC in accordance with Quotient Sciences’ standard operating procedure (SOP) on interim dose decision-making and dose escalation.
Secondary outcome measures were the oral PK of single (SAD) and multiple (MAD) ascending doses of anle138b in the fasted state as well as the effect of co-administration with food on the PK of anle138b. To this end PK blood samples were taken at day 1 (and for MAD day 7) pre-dose and at 0·5, 1, 1·5, 2, 3, 4, 6, 8, 10, 12, 16 and 20 h post-dose, at days 2 to 6 pre-dose only (MAD) and 24, 30, 36 and 48 h post final dose. Analysis of anle138b in plasma was done at Aptuit, an Evotec company, in Verona, Italy. Time point of last quantifiable data was seen to increase with an increase in dose as follows: SAD: from the 50mg dose (subjects ranged between 8-24h) to the 300mg dose (subjects ranged between 36-48h). MAD: from the 100mg dose (subjects ranged between 8-36h) to the 300mg dose (subjects ranged between 20-48h). In FES, subjects ranged between 24-48h.
The study was exploratory and no formal sample size calculation was made. Based on experience from previous studies of similar design, eight subjects per cohort were enrolled for parts 1 (SAD) and 2 (MAD) and a total of twelve subjects for part 3 (FES). Populations and analysis sets were determined for safety and PK data after database lock using the criteria defined in the reporting and analysis plan. The safety population and safety analysis set for SAD and MAD were defined after database lock but prior to study unblinding. Statistical analysis and production of summary tables, figures and listings for all safety data (AEs, vital signs, ECGs and safety laboratory assessments) including changes from baseline as required in this study were performed using the statistical package SAS (v9·4). Additional statistics was provided for PK-related data including coefficient of variation (CV%), geometric mean, geometric CV%, and the number n of subjects that were included in the natural logarithmic transformation). […]

Series [2] in a line: Oral pharmacokinetics, overall statements across SAD, MAD and FES parts. It is filed as in vivo, human. Here is the method: as §1, with “escalation. […]” for “escalation.”
Secondary outcome measures were the oral PK of single (SAD) and multiple (MAD) ascending doses of anle138b in the fasted state as well as the effect of co-administration with food on the PK of anle138b. […] Time point of last quantifiable data was seen to increase with an increase in dose as follows: SAD: from the 50mg dose (subjects ranged between 8-24h) to the 300mg dose (subjects ranged between 36-48h). […]

For series [3] the following is noted: animal studies; cited from earlier work.

Usually Cmax stands for the highest concentration seen after dosing. For `Brc1cccc(-c2cc(-c3ccc4c(c3)OCO4)n[nH]2)c1` [anle138b, 3-(1,3-benzodioxol-5-yl)-5-(3-bromophenyl)-1H-pyrazole], the “Time point of last quantifiable data (range of subjects)” value in series [1] (MAD 100mg dose) lay in the range of 8 to 36 h; in series [1] (MAD 300mg dose) it was 20 to 48 h. For the same compound, in series [1] (MAD day 7 vs day 1), the “Effect of multiple dosing on Tmax” value is “unaffected by multiple dosing”. The “Exposure relative to the level required for full efficacy in PD mouse model (≥300 ng*h/ml)” value in series [1] (highest dose tested (300 mg), multiple dosing) is on record as “more than twice this exposure”. Further, the Cmax is 135 ng/mL in series [1] (human, plasma, oral, 100 mg, MAD Cohort A 100 mg QD, dosing day 1, fasted, geometric mean (CV%)); 447 ng/mL in series [1] (human, plasma, oral, 200 mg, MAD Cohort B 200 mg QD, dosing day 1, fasted, geometric mean (CV%)); 128 ng/mL in series [1] (human, plasma, oral, 200 mg, MAD Cohort B 200 mg QD, dosing day 7, fasted, geometric mean (CV%)); 910 ng/mL in series [1] (human, plasma, oral, 300 mg, MAD Cohort C 300 mg QD, dosing day 1, fasted, geometric mean (CV%)); 307 ng/mL in series [1] (human, plasma, oral, 300 mg, MAD Cohort C 300 mg QD, dosing day 7, fasted, geometric mean (CV%)). The AUC(0-t) in series [1] (human, plasma, oral, 100 mg, MAD Cohort A 100 mg QD, dosing day 1, fasted, geometric mean (CV%), read-out: AUC(0-24)) was 261 ng·h/mL; in series [1] (human, plasma, oral, 100 mg, MAD Cohort A 100 mg QD, dosing day 7, fasted, geometric mean (CV%), read-out: AUC(0-24)) it was 141 ng·h/mL; in series [1] (human, plasma, oral, 200 mg, MAD Cohort B 200 mg QD, dosing day 1, fasted, geometric mean (CV%), read-out: AUC(0-24)) it was 905 ng·h/mL; in series [1] (human, plasma, oral, 200 mg, MAD Cohort B 200 mg QD, dosing day 7, fasted, geometric mean (CV%), read-out: AUC(0-24)), 308 ng·h/mL; in series [1] (human, plasma, oral, 200 mg, multiple dosing at a daily dose of 200 mg, read-out: Exposure level (AUC0-24)), not below 300 ng·h/mL; in series [1] (human, plasma, oral, 300 mg, MAD Cohort C 300 mg QD, dosing day 1, fasted, geometric mean (CV%), read-out: AUC(0-24)) it was 2210 ng·h/mL. Moreover, the AUC(0-t) in series [1] (human, plasma, oral, 300 mg, MAD Cohort C 300 mg QD, dosing day 7, fasted, geometric mean (CV%), read-out: AUC(0-24)) came out at 633 ng·h/mL. Also, the half-life is approximately 10 h in series [1] (human, plasma, oral, MAD Cohort B 200 mg QD, dosing day 7, fasted, geometric mean (CV%), N=5) and not below 10 h in series [2] (human, plasma, oral, authors' conclusion from SAD data, read-out: true T½ of anle138b in human plasma). The “Day by which steady state exposure appeared to be reached” value in series [1] (trough (pre-dose) levels, repeated daily dosing) is not above 5 days. Moreover, the practical elimination half-time in series [2] (overall PK data) is given as approximately 12 h. The “Bioavailability (in words)” value in series [2] (overall PK data, fasted and fed conditions) is “good bioavailability”. Also, in series [3], the “Levels of anle138b in the brain relative to plasma” value is listed as 5 fold. For the same compound, the “Oral bioavailability (in words)” value in series [3] is recorded as “high oral bioavailability”.
